Assay results from ChEMBL document CHEMBL4346703, “Structure Overhaul Affords a Potent Purine PI3Kδ Inhibitor with Improved Tolerability” (J Med Chem, 2019).

Experiments:
[1] = fAUC in Beagle dog at 25 mg/kg administered for 8 days; type: ADME, organism-based, Canis lupus familiaris; conditions: in vivo, 192 h
Phosphodiesterase 6 = assay: Inhibition of PDE6 (unknown origin); type: protein assay, Homo sapiens
[2] = Unbound volume of distribution in Wistar Han rat; type: ADME; conditions: in vivo
[3] = fCmax in rat at 750 mg/kg administered for 4 days; type: ADME, organism-based; conditions: in vivo, 96 h
[4] = fAUC in rat at 750 mg/kg administered for 4 days; type: ADME, organism-based; conditions: in vivo, 96 h
[5] = biological target: PI3-kinase p110-alpha/p85-alpha (Homo sapiens, UniProt P42336); assay: Inhibition of N-terminal His6-tagged recombinant full length human p110alpha/untagged recombinant full length human p85alpha expressed in baculovirus infected Sf21 insect cells using PIP2 as substrate preincubated for 15 mins followed by substrate addition and measured after 1 hr by HTRF assay
Chain of PI3-kinase p110-alpha/p85-alpha (P27986 whole entry): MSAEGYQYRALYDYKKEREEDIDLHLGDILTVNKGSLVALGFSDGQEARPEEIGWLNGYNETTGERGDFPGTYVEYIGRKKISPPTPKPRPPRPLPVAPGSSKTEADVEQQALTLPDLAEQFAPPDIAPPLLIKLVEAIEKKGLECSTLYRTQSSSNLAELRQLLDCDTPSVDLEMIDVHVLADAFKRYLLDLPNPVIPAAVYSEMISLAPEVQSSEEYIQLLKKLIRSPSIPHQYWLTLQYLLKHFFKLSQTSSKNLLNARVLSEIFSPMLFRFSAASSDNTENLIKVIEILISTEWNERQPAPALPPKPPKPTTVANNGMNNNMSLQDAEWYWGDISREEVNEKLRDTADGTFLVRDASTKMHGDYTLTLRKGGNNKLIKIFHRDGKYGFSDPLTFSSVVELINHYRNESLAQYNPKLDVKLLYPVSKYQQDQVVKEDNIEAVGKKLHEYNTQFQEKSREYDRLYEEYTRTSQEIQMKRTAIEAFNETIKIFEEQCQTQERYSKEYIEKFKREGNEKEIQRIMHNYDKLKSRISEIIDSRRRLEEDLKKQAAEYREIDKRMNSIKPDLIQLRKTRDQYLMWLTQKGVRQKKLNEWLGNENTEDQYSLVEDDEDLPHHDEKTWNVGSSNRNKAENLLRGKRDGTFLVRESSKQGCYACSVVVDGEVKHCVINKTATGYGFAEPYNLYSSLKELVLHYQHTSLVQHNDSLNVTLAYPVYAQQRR
Chain of PI3-kinase p110-alpha/p85-alpha (P42336 whole entry): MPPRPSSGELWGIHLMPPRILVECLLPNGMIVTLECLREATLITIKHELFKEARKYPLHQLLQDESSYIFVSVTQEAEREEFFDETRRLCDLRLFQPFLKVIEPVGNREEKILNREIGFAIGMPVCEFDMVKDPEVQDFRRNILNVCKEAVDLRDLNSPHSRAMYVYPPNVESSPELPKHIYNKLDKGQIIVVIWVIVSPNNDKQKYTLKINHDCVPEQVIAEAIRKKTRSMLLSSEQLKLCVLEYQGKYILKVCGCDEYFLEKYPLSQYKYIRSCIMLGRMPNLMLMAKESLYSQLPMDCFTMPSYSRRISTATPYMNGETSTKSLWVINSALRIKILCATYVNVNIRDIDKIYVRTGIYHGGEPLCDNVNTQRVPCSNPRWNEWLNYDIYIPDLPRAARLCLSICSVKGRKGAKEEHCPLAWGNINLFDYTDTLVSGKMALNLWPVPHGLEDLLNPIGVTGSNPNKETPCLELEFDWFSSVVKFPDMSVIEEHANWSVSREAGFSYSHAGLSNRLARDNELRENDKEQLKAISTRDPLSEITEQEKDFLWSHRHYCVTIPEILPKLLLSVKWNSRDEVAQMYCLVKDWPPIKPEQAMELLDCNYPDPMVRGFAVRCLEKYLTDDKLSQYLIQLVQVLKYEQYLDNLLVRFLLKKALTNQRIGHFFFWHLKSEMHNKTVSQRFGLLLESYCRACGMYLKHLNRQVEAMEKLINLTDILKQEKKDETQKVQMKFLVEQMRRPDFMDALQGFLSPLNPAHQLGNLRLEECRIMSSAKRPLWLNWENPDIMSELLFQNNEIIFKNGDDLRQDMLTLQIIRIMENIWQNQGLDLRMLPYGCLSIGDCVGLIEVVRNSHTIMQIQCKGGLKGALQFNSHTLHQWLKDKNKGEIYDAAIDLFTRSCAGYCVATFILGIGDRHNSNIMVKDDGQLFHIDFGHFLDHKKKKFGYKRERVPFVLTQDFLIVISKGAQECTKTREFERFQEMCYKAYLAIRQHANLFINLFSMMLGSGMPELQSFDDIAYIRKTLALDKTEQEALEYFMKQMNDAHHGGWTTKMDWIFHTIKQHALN

Homo sapiens = organism: Homo sapiens; assay: Selectivity ratio of IC50 for N-terminal His6-tagged recombinant full length human p110beta/untagged recombinant full length human p85alpha expressed in baculovirus infected Sf21 insect cells to N-terminal His6-tagged recombinant full length human p110delta/untagged recombinant full length human p85alpha expressed in baculovirus infected Sf21 insect cells
Phosphodiesterase 7 = Phosphodiesterase 7 (Homo sapiens, UniProt Q13946+Q9NP56); assay: Inhibition of PDE7 (unknown origin); type: protein assay
[6] = Protein binding in Wistar Han rat plasma; type: ADME, cell-free; conditions: read-out: PPB (converted)
[7] = biological target: Dual 3',5'-cyclic-AMP and -GMP phosphodiesterase 11A (Homo sapiens, UniProt Q9HCR9); assay: Inhibition of PDE11 (unknown origin)
Chain of Dual 3',5'-cyclic-AMP and -GMP phosphodiesterase 11A (Q9HCR9 whole entry): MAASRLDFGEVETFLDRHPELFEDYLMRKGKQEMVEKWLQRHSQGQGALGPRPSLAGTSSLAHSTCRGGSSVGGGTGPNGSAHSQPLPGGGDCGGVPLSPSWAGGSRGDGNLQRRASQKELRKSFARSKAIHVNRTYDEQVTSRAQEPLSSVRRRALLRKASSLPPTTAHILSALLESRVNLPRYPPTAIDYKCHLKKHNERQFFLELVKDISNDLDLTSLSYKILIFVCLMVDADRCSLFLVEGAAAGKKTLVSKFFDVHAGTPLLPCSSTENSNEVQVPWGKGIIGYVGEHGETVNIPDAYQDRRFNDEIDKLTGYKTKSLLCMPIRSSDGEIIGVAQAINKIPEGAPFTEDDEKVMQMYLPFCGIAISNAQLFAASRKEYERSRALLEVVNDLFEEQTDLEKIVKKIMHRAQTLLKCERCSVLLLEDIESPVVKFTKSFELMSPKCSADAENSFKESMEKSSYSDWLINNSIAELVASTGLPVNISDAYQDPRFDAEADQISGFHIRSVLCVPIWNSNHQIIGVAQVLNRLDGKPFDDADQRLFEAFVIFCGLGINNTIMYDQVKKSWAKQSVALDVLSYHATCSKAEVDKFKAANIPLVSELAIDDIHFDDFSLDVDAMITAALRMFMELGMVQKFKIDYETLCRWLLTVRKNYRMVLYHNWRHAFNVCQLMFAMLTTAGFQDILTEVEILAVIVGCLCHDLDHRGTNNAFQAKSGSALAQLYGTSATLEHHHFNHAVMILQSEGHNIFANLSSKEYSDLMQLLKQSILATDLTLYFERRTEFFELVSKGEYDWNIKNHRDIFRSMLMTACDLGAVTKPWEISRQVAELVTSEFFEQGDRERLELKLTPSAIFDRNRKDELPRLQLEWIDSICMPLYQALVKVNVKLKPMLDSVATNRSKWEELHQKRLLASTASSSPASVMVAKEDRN

[8] = Half-life in Wistar Han rat; type: ADME; conditions: in vivo
[9] = Drug recovery in rat urine after 24 hrs; type: ADME; conditions: read-out: Drug recovery
[10] = Protein binding in Beagle dog plasma; type: ADME, cell-free, Canis lupus familiaris; conditions: read-out: PPB (converted)
[11] = biological target: T1, Phosphatidylinositol 4,5-bisphosphate 3-kinase catalytic subunit delta isoform (Homo sapiens, UniProt O00329); assay: Inhibition of PI3Kdelta in human Ramos cells assessed as reduction in anti-IgM-antibody-induced phosphorylation of AKT at Ser473 residue preincubated for 20 mins followed by anti-IgM antibody stimulation and measured after 30 mins by alphascreen assay; type: cell-based
T1 sequence (O00329 whole entry): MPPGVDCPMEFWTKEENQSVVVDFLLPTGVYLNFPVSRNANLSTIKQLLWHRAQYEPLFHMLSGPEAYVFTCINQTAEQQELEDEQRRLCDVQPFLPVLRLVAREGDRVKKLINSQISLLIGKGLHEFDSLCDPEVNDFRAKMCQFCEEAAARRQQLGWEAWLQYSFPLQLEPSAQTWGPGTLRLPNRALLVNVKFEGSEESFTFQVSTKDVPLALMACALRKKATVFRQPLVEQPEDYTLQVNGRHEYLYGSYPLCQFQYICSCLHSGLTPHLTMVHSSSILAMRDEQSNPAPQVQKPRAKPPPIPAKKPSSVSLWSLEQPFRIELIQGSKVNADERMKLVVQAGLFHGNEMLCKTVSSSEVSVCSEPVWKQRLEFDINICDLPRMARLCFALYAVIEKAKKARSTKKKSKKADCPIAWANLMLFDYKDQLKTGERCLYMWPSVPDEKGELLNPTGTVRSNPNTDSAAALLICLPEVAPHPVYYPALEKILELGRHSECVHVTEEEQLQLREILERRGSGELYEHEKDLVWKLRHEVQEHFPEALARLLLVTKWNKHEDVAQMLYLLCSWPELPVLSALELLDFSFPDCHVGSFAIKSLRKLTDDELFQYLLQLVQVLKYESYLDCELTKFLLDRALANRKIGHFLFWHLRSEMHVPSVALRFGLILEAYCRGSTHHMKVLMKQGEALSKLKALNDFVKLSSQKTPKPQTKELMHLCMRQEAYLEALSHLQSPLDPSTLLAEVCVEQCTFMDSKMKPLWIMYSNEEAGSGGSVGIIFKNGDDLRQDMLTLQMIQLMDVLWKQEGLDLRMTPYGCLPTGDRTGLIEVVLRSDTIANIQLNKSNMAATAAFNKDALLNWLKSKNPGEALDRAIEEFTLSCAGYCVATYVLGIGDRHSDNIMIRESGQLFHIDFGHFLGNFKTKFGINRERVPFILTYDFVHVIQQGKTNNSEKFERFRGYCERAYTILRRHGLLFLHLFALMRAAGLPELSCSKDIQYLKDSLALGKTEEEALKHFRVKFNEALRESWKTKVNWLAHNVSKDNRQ

[12] = Toxicity in Beagle dogs assessed as vascular injury at 25 mg/kg administered for 8 days; type: organism-based, Canis lupus familiaris; conditions: dog, in vivo, 192 h
[13] = biological target: High affinity cAMP-specific and IBMX-insensitive 3',5'-cyclic phosphodiesterase 8A (Homo sapiens, UniProt O60658); assay: Inhibition of PDE8 (unknown origin)
Chain of High affinity cAMP-specific and IBMX-insensitive 3',5'-cyclic phosphodiesterase 8A (O60658 whole entry, canonical isoform): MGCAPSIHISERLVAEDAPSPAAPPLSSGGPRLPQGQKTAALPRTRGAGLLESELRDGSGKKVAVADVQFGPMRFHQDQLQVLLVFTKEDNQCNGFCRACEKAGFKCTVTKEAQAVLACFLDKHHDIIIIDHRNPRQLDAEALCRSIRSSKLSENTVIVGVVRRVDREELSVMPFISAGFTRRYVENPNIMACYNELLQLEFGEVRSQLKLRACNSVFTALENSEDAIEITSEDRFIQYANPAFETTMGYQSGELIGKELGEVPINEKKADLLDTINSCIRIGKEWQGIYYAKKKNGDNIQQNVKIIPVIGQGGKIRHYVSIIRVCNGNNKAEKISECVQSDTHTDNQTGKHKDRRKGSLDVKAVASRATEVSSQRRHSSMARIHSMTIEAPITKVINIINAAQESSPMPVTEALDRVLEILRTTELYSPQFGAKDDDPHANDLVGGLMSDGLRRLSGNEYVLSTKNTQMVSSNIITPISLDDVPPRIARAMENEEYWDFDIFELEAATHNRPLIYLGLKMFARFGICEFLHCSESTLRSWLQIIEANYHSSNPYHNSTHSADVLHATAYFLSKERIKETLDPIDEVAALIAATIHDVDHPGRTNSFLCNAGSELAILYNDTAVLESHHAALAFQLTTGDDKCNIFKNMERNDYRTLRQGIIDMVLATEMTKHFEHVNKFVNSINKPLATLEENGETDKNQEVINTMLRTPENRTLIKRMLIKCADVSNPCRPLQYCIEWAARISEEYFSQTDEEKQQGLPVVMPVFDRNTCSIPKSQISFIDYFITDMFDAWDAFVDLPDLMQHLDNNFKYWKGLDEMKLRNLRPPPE

[14] = biological target: T1, Phosphatidylinositol 4,5-bisphosphate 3-kinase catalytic subunit delta isoform; assay: Inhibition of PI3Kdelta in human whole blood assessed as reduction in anti-CD79b antibody-induced CD69 expression preincubated for 60 mins followed by anti-CD79b antibody stimulation and measured after 3 hrs by FACS analysis; type: tissue-based
[15] = Cardiovascular toxicity in rat assessed as vascular injury at 750 mg/kg for 4 days; type: organism-based; conditions: in vivo, 96 h
[16] = Volume of distribution in Wistar Han rat; type: ADME; conditions: in vivo

fAUC [1]: 222 µM·h | IC50 (Phosphodiesterase 6): > 50 µM | Vdu [2]: 2 L/kg | fCmax [3]: 200 µM | fAUC [4]: 990 µM·h | IC50 [5]: 0.27 µM | IC50 (Phosphodiesterase 7): > 50 µM | fraction unbound [6]: 0.73 | IC50 [7]: > 20 µM | half-life [8]: 48 min | dose excreted at 24 h [9]: 17% | fraction unbound [10]: 0.74 | IC50 [11]: 0.062 µM | IC50 [13]: > 50 µM | IC50 [14]: 0.36 µM | Vd [16]: 1.2 L/kg
SMILES: CCn1ncc(-c2nc3c(O[C@H]4CCN(C(=O)C5CCOCC5)C4)ncnc3n2C)c1C
Ratio IC50 (Homo sapiens): 1400 | Activity [12]: Non-Toxic | Activity [15]: Non-Toxic
